Laboratory results published in ChEMBL document CHEMBL4145665, “Structure-Activity Relationship of Novel and Selective Biaryl-Chroman GPR40 AgoPAMs” (ACS Med Chem Lett, 2018).

Key:
Rattus norvegicus [1] = experiment: Antidiabetic activity in Goto Kakizaki rats assessed as inhibition of blood glucose AUC at 10 mg/kg, po pretreated for 1 hr followed by dextrose challenge measured after 20 to 60 mins by OGTT method relative to control; assay type: functional
[2] = target: T1, Free fatty acid receptor 1 (Homo sapiens, UniProt O14842); experiment: Agonist activity at recombinant human GPR40 expressed in HEK293 cells assessed as increase in IP1 accumulation measured after 60 mins in presence of 100% human serum by HTRF assay; assay type: functional, cell-based
Rattus norvegicus [3] = experiment: Antidiabetic activity in po dosed Goto Kakizaki rats assessed as reduction in blood glucose excursion pretreated for 1 hr followed by dextrose challenge measured after 20 to 60 mins by OGTT method; assay type: functional; details: read-out: MED
[4] = target: T1, Free fatty acid receptor 1; experiment: Agonist activity at recombinant human GPR40 expressed in HEK293 cells assessed as increase in IP1 accumulation measured after 60 mins by HTRF assay; assay type: functional, cell-based
[5] = Oral bioavailability in Wistar-Han rat at 2 mg/kg administered as single dose; assay type: ADME, organism-based; details: in vivo
[6] = Fraction unbound in Wistar-Han rat plasma at 1 mg/kg, iv or 2 mg/kg, po administered as single dose; assay type: ADME, organism-based
Rattus norvegicus [7] = experiment: Antidiabetic activity in Goto Kakizaki rats assessed as inhibition of blood glucose AUC at 1 mg/kg, po pretreated for 1 hr followed by dextrose challenge measured after 20 to 60 mins by OGTT method relative to control; assay type: functional
Rattus norvegicus [8] = experiment: Antidiabetic activity in Goto Kakizaki rats assessed as inhibition of blood glucose AUC at 30 mg/kg, po pretreated for 1 hr followed by dextrose challenge measured after 20 to 60 mins by OGTT method relative to control; assay type: functional
Rattus norvegicus [9] = experiment: Antidiabetic activity in Sprague-Dawley rat assessed as inhibition of blood glucose AUC at 3 mg/kg, po treated prior to dextrose challenge and measured after 20 to 60 mins by IPGTT relative to control; assay type: functional; details: Rattus norvegicus, Sprague-Dawley, po
Bile salt export pump = Bile salt export pump (Homo sapiens, UniProt O95342); experiment: Inhibition of human BSEP expressed in baculovirus infected Sf9 insect cell membrane vesicles assessed as reduction in ATP-dependent [3H]-taurocholic acid uptake; assay type: ADME
[10] = Clearance in Wistar-Han rat at 1 mg/kg, iv or 2 mg/kg, po administered as single dose; assay type: ADME, organism-based; details: in vivo
Rattus norvegicus [11] = experiment: Antidiabetic activity in Goto Kakizaki rats assessed as inhibition of blood glucose AUC at 0.3 mg/kg, po pretreated for 1 hr followed by dextrose challenge measured after 20 to 60 mins by OGTT method relative to control; assay type: functional
[12] = target: T2, Free fatty acid receptor 4 (Homo sapiens, UniProt Q5NUL3); experiment: Agonist activity at GPR120 (unknown origin); assay type: functional
T2 sequence (Q5NUL3 whole entry): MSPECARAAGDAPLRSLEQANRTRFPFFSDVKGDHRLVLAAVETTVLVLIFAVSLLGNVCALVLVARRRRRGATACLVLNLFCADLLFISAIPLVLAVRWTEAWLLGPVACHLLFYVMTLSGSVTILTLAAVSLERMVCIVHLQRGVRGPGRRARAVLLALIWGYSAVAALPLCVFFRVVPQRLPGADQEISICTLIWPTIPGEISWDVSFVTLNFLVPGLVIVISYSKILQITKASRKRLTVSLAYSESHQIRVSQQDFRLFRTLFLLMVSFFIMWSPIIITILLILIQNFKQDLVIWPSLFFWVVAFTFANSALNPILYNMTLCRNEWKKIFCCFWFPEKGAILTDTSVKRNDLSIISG

[13] = target: Free fatty acid receptor 1 (Rattus norvegicus, UniProt Q8K3T4); experiment: Agonist activity at recombinant rat GPR40 expressed in CHOK1 cells assessed as increase in IP1 accumulation measured after 60 mins by HTRF assay; assay type: functional, cell-based
Rattus norvegicus [14] = experiment: Antidiabetic activity in Goto Kakizaki rats assessed as inhibition of blood glucose AUC at 3 mg/kg, po pretreated for 1 hr followed by dextrose challenge measured after 20 to 60 mins by OGTT method relative to control; assay type: functional
[15] = Volume of distribution at steady state in Wistar-Han rat at 1 mg/kg, iv or 2 mg/kg, po administered as single dose; assay type: ADME, organism-based; details: in vivo, read-out: Vdss
[16] = Effective half life in Wistar-Han rat at 1 mg/kg, iv or 2 mg/kg, po administered as single dose; assay type: ADME, organism-based; details: in vivo, read-out: t1/2eff (converted)

T1 sequence (O14842 whole entry): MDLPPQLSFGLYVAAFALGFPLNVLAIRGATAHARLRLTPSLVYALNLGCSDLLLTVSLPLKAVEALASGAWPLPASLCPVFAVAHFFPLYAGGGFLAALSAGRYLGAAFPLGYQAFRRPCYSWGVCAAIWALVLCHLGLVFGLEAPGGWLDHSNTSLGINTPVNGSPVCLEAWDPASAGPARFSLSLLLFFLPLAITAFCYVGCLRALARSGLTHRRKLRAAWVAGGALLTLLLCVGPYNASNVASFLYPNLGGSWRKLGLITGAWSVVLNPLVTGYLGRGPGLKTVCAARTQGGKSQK
Sequence of Free fatty acid receptor 1 (Rattus norvegicus, UniProt Q8K3T4) (Q8K3T4 whole entry): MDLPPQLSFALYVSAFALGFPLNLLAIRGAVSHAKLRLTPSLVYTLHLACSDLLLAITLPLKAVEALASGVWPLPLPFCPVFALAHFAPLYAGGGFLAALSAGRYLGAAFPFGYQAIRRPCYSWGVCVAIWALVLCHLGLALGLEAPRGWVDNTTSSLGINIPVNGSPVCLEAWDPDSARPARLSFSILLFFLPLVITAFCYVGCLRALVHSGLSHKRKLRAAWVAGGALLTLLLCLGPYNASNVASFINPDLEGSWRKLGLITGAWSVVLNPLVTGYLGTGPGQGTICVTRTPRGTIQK
Sequence of Bile salt export pump (O95342 whole entry): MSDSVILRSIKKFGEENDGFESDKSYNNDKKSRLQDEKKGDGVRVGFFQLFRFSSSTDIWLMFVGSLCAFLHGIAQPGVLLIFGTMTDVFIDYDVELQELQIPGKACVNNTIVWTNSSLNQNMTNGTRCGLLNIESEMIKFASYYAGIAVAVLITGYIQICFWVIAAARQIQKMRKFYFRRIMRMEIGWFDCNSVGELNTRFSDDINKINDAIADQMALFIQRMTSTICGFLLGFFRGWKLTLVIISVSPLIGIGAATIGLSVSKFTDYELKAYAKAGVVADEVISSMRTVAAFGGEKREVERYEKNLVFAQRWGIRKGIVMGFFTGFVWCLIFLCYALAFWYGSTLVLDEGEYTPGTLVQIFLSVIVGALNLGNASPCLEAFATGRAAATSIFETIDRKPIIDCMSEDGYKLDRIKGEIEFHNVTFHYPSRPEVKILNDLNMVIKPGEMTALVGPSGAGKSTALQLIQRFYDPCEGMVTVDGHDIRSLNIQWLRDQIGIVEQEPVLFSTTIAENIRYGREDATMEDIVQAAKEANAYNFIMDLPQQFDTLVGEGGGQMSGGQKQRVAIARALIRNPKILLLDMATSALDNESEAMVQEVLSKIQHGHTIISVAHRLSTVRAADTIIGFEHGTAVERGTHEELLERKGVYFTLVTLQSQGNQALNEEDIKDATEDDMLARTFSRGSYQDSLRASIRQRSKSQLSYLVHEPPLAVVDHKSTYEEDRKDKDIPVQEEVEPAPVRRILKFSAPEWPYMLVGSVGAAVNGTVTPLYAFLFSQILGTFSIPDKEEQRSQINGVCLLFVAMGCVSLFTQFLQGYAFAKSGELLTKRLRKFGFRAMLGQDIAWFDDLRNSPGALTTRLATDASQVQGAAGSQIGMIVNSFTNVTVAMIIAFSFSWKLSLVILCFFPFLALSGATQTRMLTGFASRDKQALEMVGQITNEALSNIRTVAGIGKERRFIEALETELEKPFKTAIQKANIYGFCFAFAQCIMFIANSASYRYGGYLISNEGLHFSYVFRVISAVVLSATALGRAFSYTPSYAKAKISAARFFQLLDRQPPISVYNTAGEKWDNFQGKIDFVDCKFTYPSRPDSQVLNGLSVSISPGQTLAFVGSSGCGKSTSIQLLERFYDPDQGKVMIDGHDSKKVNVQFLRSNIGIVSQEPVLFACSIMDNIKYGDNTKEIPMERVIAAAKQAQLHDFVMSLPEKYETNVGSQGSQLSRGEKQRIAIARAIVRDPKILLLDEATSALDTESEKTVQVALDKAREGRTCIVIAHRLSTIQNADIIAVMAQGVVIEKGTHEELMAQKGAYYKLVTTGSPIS

EC50 [2]: 0.243 µM
EC50 [4]: 0.0027 µM
bioavailability [5]: 100%
fraction unbound [6]: 0.001
clearance [10]: 1.2 mL/min/kg
EC50 [12]: > 10 µM
EC50 [13]: 0.0052 µM
Vd [15]: 0.41 L/kg
half-life [16]: 6.4 h
SMILES: COc1cc(-c2ccc(C3CCc4ccc([C@H](C5CC5)[C@H](C)C(=O)[O-])cc4O3)nc2)c(F)cn1.[Na+] (stereo in doubt; 29)
inhibition in vivo at 10 mg/kg (Rattus norvegicus [1]): 111%
minimal effective dose (Rattus norvegicus [3]): 30 mg/kg
inhibition in vivo at 1 mg/kg (Rattus norvegicus [7]): 69%
inhibition in vivo at 30 mg/kg (Rattus norvegicus [8]): 121%
inhibition in vivo at 3 mg/kg (Rattus norvegicus [9]): 108%
IC50 (Bile salt export pump): 3.2 µM
inhibition in vivo at 0.3 mg/kg (Rattus norvegicus [11]): 35%
inhibition in vivo at 3 mg/kg (Rattus norvegicus [14]): 96%
